Read-outs that look alike come from different tables or passages of the source.
Assays:
JAK1 = target: T1, JAK1 (Homo sapiens, UniProt P23458); assay: JAK1 enzyme inhibition test (LANCE method); format: biochemical; conditions: for inhibition at 1 µM: test compound 1 μM, read-out: Inhibitory rate (%) JAK1 1 μM; for inhibition at 10 µM: read-out: Inhibitory rate (%) JAK1 10 μM
T1 construct: purchased Invitrogen
Outline: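 TR-FRET (LANCE) kinase assay using JAK1 at 187.5 ng/mL, ULight-JAK1 peptide at 300 nM and ATP at 150 μM, given as solution concentrations before mixing. Buffer was 50 mM HEPES pH 7.5 with 10 mM MgCl2 and 2 mM DTT, and the reaction ran 1 h at room temperature. Eu anti-phosphotyrosine signal at 665 nm was expressed relative to a no-enzyme well, taken as 100% inhibition.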

Tyk2 = target: T2, Tyk2 (Homo sapiens, UniProt P29597); assay: Tyk2 enzyme inhibition test (LANCE method); format: biochemical; conditions: for inhibition at 1 µM: test compound 1 μM, read-out: Inhibitory rate (%) Tyk2 1 μM; for inhibition at 10 µM: test compound 10 μM, read-out: Inhibitory rate (%) Tyk2 10 μM
T2 construct: purchased Invitrogen
Outline: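 Recombinant Tyk2 (375 ng/mL stock) with ULight-JAK1 peptide (300 nM stock) and ATP (30 μM stock) in HEPES pH 7.5/MgCl2/EGTA/DTT buffer, 1 h at room temperature. Stopped with EDTA plus Eu-anti-phosphotyrosine antibody; TR-FRET read at 665 nm after 1 h. No-enzyme wells define 100% inhibition.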

T2 sequence (P29597 whole entry): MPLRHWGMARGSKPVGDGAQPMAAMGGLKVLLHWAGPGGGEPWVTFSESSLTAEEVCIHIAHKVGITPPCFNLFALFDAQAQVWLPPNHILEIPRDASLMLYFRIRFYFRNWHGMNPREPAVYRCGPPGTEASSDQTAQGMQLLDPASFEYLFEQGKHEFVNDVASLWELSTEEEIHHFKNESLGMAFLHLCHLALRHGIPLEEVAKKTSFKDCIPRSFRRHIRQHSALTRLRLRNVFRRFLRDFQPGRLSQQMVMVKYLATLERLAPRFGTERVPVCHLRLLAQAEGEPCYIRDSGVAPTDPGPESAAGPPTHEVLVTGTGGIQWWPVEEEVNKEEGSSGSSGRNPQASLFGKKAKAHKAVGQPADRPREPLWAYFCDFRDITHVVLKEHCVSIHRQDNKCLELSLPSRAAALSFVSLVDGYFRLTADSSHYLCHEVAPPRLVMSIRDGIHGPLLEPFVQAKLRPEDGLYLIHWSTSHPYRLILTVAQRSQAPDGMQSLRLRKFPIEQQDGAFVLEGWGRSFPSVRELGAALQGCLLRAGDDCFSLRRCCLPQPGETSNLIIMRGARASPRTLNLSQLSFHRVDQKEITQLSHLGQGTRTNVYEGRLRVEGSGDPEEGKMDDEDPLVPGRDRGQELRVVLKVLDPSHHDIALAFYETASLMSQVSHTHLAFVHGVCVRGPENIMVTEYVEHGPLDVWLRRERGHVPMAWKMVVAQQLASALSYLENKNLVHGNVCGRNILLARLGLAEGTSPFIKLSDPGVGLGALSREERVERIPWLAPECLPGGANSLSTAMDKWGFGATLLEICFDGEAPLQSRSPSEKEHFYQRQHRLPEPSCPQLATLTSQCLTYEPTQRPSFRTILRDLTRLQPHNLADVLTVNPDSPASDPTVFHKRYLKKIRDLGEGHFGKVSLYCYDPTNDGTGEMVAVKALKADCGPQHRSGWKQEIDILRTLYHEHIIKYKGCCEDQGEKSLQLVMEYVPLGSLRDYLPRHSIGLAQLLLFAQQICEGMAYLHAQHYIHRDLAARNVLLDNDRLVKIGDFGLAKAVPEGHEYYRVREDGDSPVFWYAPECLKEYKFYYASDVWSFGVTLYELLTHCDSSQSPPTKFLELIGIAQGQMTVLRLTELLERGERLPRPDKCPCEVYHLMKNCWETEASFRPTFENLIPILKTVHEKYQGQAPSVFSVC
T1 sequence (P23458 whole entry): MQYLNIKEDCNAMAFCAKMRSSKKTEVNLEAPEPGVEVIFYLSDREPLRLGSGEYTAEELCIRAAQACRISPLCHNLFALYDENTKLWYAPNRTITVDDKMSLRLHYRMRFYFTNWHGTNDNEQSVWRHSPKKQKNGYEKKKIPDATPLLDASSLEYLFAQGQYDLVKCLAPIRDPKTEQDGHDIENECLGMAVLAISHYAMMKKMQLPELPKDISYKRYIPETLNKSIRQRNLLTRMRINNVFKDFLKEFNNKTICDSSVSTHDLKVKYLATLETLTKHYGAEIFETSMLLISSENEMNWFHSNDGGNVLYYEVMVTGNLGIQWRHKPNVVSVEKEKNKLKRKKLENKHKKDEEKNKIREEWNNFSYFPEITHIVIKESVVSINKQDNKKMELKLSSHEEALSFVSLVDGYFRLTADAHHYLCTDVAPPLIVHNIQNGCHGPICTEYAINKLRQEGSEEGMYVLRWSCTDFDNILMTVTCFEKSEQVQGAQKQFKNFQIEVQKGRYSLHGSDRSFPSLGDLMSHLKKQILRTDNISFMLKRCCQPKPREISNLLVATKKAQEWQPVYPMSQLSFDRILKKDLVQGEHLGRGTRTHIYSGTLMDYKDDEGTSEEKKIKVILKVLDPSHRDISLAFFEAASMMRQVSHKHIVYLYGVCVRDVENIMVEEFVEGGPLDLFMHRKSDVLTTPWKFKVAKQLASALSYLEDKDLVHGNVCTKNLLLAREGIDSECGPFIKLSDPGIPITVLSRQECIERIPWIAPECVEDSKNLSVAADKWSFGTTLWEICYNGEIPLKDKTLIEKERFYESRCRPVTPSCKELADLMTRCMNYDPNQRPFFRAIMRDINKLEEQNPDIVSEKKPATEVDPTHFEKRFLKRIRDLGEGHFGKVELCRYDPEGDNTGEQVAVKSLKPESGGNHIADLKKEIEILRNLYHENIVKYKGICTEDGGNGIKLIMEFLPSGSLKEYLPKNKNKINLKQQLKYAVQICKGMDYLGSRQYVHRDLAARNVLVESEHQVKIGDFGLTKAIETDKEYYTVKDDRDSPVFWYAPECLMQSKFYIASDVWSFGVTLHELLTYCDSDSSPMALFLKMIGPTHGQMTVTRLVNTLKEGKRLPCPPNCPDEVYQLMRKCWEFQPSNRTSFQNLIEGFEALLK

SMILES | inhibition at 1 µM (JAK1) | inhibition at 1 µM (Tyk2) | inhibition at 10 µM (JAK1; test compound 10 μM (Ex. 182-220), beside Tyk2 1 μM) | inhibition at 10 µM (JAK1; test compound 10 μM) | inhibition at 10 µM (Tyk2)
Cc1c[nH]c(=O)c2c(-c3ccc(N4CCOCC4)cc3)nn(-c3c(F)cccc3F)c12 [Example 235, 1-(2,6-difluorophenyl)-7-methyl-3-(4-(morpholin-4-yl)phenyl)-1,5-dihydro-4H-pyrazolo[4,3-c]pyridin-4-one] | 92% | 99% | – | – | –
COc1ccc(CNc2nn(C(C)(C)C)c3cc[nH]c(=O)c23)cc1 [Example 249, 1-tert-butyl-3-((4-methoxybenzyl)amino)-1,5-dihydro-4H-pyrazolo[4,3-c]pyridin-4-one] | – | – | – | 30% | 25%
COC(=O)c1c[nH]c(=O)c2c(-c3csc(C(N)=O)c3)cn(C3CCCC3)c12 [Example 34, methyl 3-(5-carbamoyl-3-thienyl)-1-cyclopentyl-4-oxo-4,5-dihydro-1H-pyrrolo[3,2-c]pyridine-7-carboxylate] | 92% | 99% | – | – | –
CCC(CC)n1cc(-c2csc(C#N)c2)c2c(=O)[nH]ccc21 [Example 9, 4-(4-oxo-1-(pentan-3-yl)-4,5-dihydro-1H-pyrrolo[3,2-c]pyridin-3-yl)thiophene-2-carbonitrile] | 97% | 93% | – | – | –
NS(=O)(=O)c1ccc(-c2nn(-c3ccccc3)c3cc[nH]c(=O)c23)cc1 [Example 30, 4-(4-oxo-1-phenyl-4,5-dihydro-1H-pyrazolo[4,3-c]pyridin-3-yl)benzenesulfonamide] | 94% | 92% | – | – | –
O=C1COCCN1c1ccc(-c2nn(-c3c(F)cccc3F)c3cc[nH]c(=O)c23)cc1 [Example 304, 1-(2,6-difluorophenyl)-3-(4-(3-oxomorpholin-4-yl)phenyl)-1,5-dihydro-4H-pyrazolo[4,3-c]pyridin-4-one] | 97% | 99% | – | – | –
NC(=O)COc1ccc(-c2nn(-c3c(F)cccc3F)c3c(Cl)c[nH]c(=O)c23)cc1 [Example 169, 2-(4-(7-chloro-1-(2,6-difluorophenyl)-4-oxo-4,5-dihydro-1H-pyrazolo[4,3-c]pyridin-3-yl)phenoxy)acetamide] | 79% | 99% | – | – | –
O=c1[nH]cc(Cl)c2c1c(-c1ccc(N3CCS(=O)(=O)CC3)cc1)nn2-c1c(F)cccc1F [Example 242, 7-chloro-1-(2,6-difluorophenyl)-3-(4-(1,1-dioxidothiomorpholin-4-yl)phenyl)-1,5-dihydro-4H-pyrazolo[4,3-c]pyridin-4-one] | 27% | 97% | – | – | –
CS(=O)(=O)N1CCN(c2ccc(-c3nn(-c4c(F)cccc4F)c4cc[nH]c(=O)c34)cc2)CC1 [Example 311, 1-(2,6-difluorophenyl)-3-(4-(4-(methylsulfonyl)piperazin-1-yl)phenyl)-1,5-dihydro-4H-pyrazolo[4,3-c]pyridin-4-one] | 95% | 99% | – | – | –
NC(=O)c1ccc(-c2nn(-c3c(F)cccc3F)c3cc[nH]c(=O)c23)cc1 [Example 230, 4-(1-(2,6-difluorophenyl)-4-oxo-4,5-dihydro-1H-pyrazolo[4,3-c]pyridin-3-yl)benzamide] | 92% | 99% | – | – | –
N#Cc1c[nH]c(=O)c2c1c(C1CCCC1)nn2-c1csc(C(N)=O)c1 [Example 66, 4-(4-cyano-3-cyclopentyl-7-oxo-6,7-dihydro-1H-pyrazolo[3,4-c]pyridin-1-yl)thiophene-2-carboxamide] | 66% | 92% | – | – | –
NC(=O)c1cccc(-c2nn(-c3c(F)cccc3F)c3cc[nH]c(=O)c23)c1 [Example 255, 3-(1-(2,6-difluorophenyl)-4-oxo-4,5-dihydro-1H-pyrazolo[4,3-c]pyridin-3-yl)benzamide] | 93% | 98% | – | – | –
O=c1[nH]ccc2c1c(-c1cccc(CN3CCC(F)(F)C3)c1)nn2-c1c(F)cccc1F [Example 261, 1-(2,6-difluorophenyl)-3-(3-((3,3-difluoropyrrolidin-1-yl)methyl)phenyl)-1,5-dihydro-4H-pyrazolo[4,3-c]pyridin-4-one] | 41% | 94% | – | – | –
CC1(C)OCC(Cn2cc(-c3ccc(S(N)(=O)=O)cc3)c3c(=O)[nH]ccc32)O1 (stereo not drawn) [Example 90, 4-(1-((2,2-dimethyl-1,3-dioxolan-4-yl)methyl)-4-oxo-4,5-dihydro-1H-pyrrolo[3,2-c]pyridin-3-yl)benzenesulfonamide] | – | – | – | 38% | 22%
COc1ccc(Cn2nc(-c3ccc(S(N)(=O)=O)cc3)c3c(=O)[nH]ccc32)cc1 [Example 94, 4-(1-(4-methoxybenzyl)-4-oxo-4,5-dihydro-1H-pyrazolo[4,3-c]pyridin-3-yl)benzenesulfonamide] | 80% | 78% | – | – | –

Further lines, results first:

inhibition at 1 µM (JAK1) | inhibition at 1 µM (Tyk2) | inhibition at 10 µM (JAK1; test compound 10 μM (Ex. 182-220), beside Tyk2 1 μM) | inhibition at 10 µM (JAK1; test compound 10 μM) | inhibition at 10 µM (Tyk2) | SMILES
99% | 98% | – | – | – | NC(=O)c1cc(-c2nn(C3CCC4(CC3)OCCO4)c3cc[nH]c(=O)c23)cs1 [Example 148, 4-(1-(1,4-dioxaspiro[4.5]dec-8-yl)-4-oxo-4,5-dihydro-1H-pyrazolo[4,3-c]pyridin-3-yl)thiophene-2-carboxamide]
– | 100% | 100% | – | – | CC1(O)CCC(n2nc(-c3csc(C(N)=O)c3)c3c(=O)[nH]ccc32)CC1 (stereo not drawn) [Example 198, 4-(1-(4-hydroxy-4-methylcyclohexyl)-4-oxo-4,5-dihydro-1H-pyrazolo[4,3-c]pyridin-3-yl)thiophene-2-carboxamide]
40% | 51% | – | – | – | O=c1[nH]ccc2c1c(-c1ccccc1)cn2C1CCCC1 [Example 1, 1-cyclopentyl-3-phenyl-1,5-dihydro-4H-pyrrolo[3,2-c]pyridin-4-one]
88% | 81% | – | – | – | O=c1[nH]ccc2c1c(-c1ccc([N+](=O)[O-])cc1)nn2C1CCCC1 [Example 57, 1-cyclopentyl-3-(4-nitrophenyl)-1,5-dihydro-4H-pyrazolo[4,3-c]pyridin-4-one]
47% | 90% | – | – | – | N#Cc1c[nH]c(=O)c2c(-c3cccnc3)cn(C3CCCC3)c12 [Example 133, 1-cyclopentyl-4-oxo-3-(pyridin-3-yl)-4,5-dihydro-1H-pyrrolo[3,2-c]pyridine-7-carbonitrile]
92% | 92% | – | – | – | Cc1ccc(-c2nn(C3CCCC3)c3cc[nH]c(=O)c23)cc1 [Example 50, 1-cyclopentyl-3-(4-methylphenyl)-1,5-dihydro-4H-pyrazolo[4,3-c]pyridin-4-one]
87% | 66% | – | – | – | NS(=O)(=O)c1ccc(-c2nn(CC3CCOC3)c3cc[nH]c(=O)c23)cc1 (stereo not drawn) [Example 115, 4-(4-oxo-1-(tetrahydrofuran-3-ylmethyl)-4,5-dihydro-1H-pyrazolo[4,3-c]pyridin-3-yl)benzenesulfonamide]
91% | 95% | – | – | – | COc1ccc(-c2nn(C3CCCC3)c3cc[nH]c(=O)c23)cc1 [Example 46, 1-cyclopentyl-3-(4-methoxyphenyl)-1,5-dihydro-4H-pyrazolo[4,3-c]pyridin-4-one]
98% | 95% | – | – | – | NS(=O)(=O)c1ccc(-c2nn(C3CCC(F)(F)CC3)c3cc[nH]c(=O)c23)cc1 [Example 290, 4-(1-(4,4-difluorocyclohexyl)-4-oxo-4,5-dihydro-1H-pyrazolo[4,3-c]pyridin-3-yl)benzenesulfonamide]
97% | 96% | – | – | – | COC(=O)c1cc(-c2cn(C3CCCC3)c3cc[nH]c(=O)c23)cs1 [Example 3, methyl 4-(1-cyclopentyl-4-oxo-4,5-dihydro-1H-pyrrolo[3,2-c]pyridin-3-yl)thiophene-2-carboxylate]
– | – | – | 81% | 58% | NC(=O)c1cc(-c2nn([C@H]3CC[C@@H](N)CC3)c3cc[nH]c(=O)c23)cs1 [Example 298, 4-(1-(cis-4-aminocyclohexyl)-4-oxo-4,5-dihydro-1H-pyrazolo[4,3-c]pyridin-3-yl)thiophene-2-carboxamide]
89% | 99% | – | – | – | N#CCc1ccc(-c2nn(-c3c(F)cccc3F)c3c(Cl)c[nH]c(=O)c23)cc1 [Example 116, (4-(7-chloro-1-(2,6-difluorophenyl)-4-oxo-4,5-dihydro-1H-pyrazolo[4,3-c]pyridin-3-yl)phenyl)acetonitrile]
99% | 97% | – | – | – | N#CCc1ccc(-c2nn(C3CCCC3)c3cc[nH]c(=O)c23)cc1 [Example 127, (4-(1-cyclopentyl-4-oxo-4,5-dihydro-1H-pyrazolo[4,3-c]pyridin-3-yl)phenyl)acetonitrile]
99% | 99% | – | – | – | NC(=O)c1cc(-c2nn([C@H]3CC[C@H](N)CC3)c3cc[nH]c(=O)c23)cs1 [Example 299, 4-(1-(trans-4-aminocyclohexyl)-4-oxo-4,5-dihydro-1H-pyrazolo[4,3-c]pyridin-3-yl)thiophene-2-carboxamide]
96% | 99% | – | – | – | N#Cc1c[nH]c(=O)c2c(-c3cn[nH]c3)cn(C3CCCC3)c12 [Example 111, 1-cyclopentyl-4-oxo-3-(1H-pyrazol-4-yl)-4,5-dihydro-1H-pyrrolo[3,2-c]pyridine-7-carbonitrile]

— patent US9371320B2, “Heterocyclic compound” (TAKEDA PHARMACEUTICAL COMPANY LIMITED, priority 2012, dated 2016)
